From publication PMC10017821, “Polycystic kidney disease 2-like 1 channel contributes to the bitter aftertaste perception of quinine” (Scientific Reports, 2023)

Molecular target: T1, PKD2L1 (polycystic kidney disease 2-like 1 channel) (Mus musculus, UniProt A2A259)
T1 construct: mouse PKD2L1 in pCINeo/IRES-GFP, transiently expressed in HEK293T cells; no PKD1L3 co-expression mentioned; homotetramer (known biology)
T1 sequence (A2A259 1-760): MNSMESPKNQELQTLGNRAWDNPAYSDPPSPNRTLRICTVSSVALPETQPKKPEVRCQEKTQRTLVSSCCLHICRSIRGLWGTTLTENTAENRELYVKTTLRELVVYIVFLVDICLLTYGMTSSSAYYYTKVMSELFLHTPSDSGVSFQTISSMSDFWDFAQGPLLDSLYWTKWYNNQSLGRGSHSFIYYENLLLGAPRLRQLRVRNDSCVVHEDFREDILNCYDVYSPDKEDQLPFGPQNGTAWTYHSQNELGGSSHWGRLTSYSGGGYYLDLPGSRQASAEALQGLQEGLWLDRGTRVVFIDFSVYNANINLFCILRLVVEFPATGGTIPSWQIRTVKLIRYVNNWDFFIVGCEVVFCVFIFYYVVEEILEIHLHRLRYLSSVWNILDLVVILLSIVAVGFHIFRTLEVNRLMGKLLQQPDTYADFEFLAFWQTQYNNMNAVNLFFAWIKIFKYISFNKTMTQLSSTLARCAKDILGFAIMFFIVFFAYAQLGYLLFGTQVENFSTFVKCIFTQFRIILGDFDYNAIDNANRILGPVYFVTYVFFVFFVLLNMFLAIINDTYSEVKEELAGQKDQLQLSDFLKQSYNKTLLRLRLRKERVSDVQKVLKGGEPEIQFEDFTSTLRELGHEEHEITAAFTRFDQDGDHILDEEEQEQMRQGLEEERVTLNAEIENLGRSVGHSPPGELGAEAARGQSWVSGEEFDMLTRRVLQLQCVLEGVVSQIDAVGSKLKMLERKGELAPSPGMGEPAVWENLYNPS
Test: whole-cell patch clamp, channel activity (NPo) at -60 mV
Assay type: cell-based

SMILES: C=C[C@H]1C[N@@]2CC[C@H]1C[C@H]2[C@H](O)c1ccnc2ccc(OC)cc12 [quinine]
- EC50: 33 µM
